# Experimental data published in PubChem BioAssay AID1919002 (Molecular Pharmacology Branch, DTP, NCI, 2023).
# System: 743489-274-T-PDC complex spheroid growth
# Experiment: Anticancer human tumor 743489-274-T-PDC patient-derived renal cell carcinoma cell line growth inhibition [AhR]
# Conditions: for IC50: curve of first compound; for viability, T/C: stronger effect = lower value
# Method in brief: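 Complex tumor spheroids co-cultured with HUVEC and human MSC stroma; AhR antagonists tested in combination with standard-of-care and investigational agents. Top concentration at or near clinical Cmax (else 10 microM), half-log dilutions; growth expressed as percent test/control.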
# [1] = second compound 0.1 µM, first compound 0.0316 µM
# [2] = second compound 0.1 µM, first compound 0.1 µM
# [3] = second compound 0.1 µM, first compound 0.316 µM
# [4] = second compound 0.1 µM, first compound 1 µM
# [5] = second compound 0.316 µM, first compound 0.0316 µM
# [6] = second compound 0.316 µM, first compound 0.1 µM
# [7] = second compound 0.316 µM, first compound 0.316 µM
# [8] = second compound 0.316 µM, first compound 1 µM
# [9] = second compound 1 µM, first compound 0.0316 µM
# [10] = second compound 1 µM, first compound 0.1 µM
# [11] = second compound 1 µM, first compound 0.316 µM
# [12] = second compound 1 µM, first compound 1 µM
# [13] = second compound 3.16 µM, first compound 0.0316 µM
# [14] = second compound 3.16 µM, first compound 0.1 µM
# [15] = second compound 3.16 µM, first compound 0.316 µM
# [16] = second compound 3.16 µM, first compound 1 µM
# [17] = second compound 10 µM, first compound 0.0316 µM
# [18] = second compound 10 µM, first compound 0.1 µM
# [19] = second compound 10 µM, first compound 0.316 µM
# [20] = second compound 10 µM, first compound 1 µM
# 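Also: spheroids exposed to agents for 7 days before readout.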
# 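For viability, T/C in this document: 100% = DMSO vehicle control wells.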
smiles,measurement,setting,value
CCN(c1cc(-c2ccc(CN3CCOCC3)cc2)cc(C(=O)NCc2c(C)cc(C)[nH]c2=O)c1C)C1CCOCC1 + Cc1cncc(-c2nc(NCCc3c[nH]c4ccccc34)c3ncn(C(C)C)c3n2)c1,IC50,second compound 0.1 µM,> 3 µM
same,IC50,second compound 0.316 µM,> 3 µM
same,IC50,second compound 1 µM,> 3 µM
same,IC50,second compound 3.16 µM,> 3 µM
same,IC50,second compound 10 µM,> 3 µM
same,"viability, T/C","second compound 0.1 µM, first compound 0.00949 µM",102%
same,"viability, T/C","second compound 0.1 µM, first compound 0.03 µM",102%
same,"viability, T/C","second compound 0.1 µM, first compound 0.0949 µM",99.9%
same,"viability, T/C","second compound 0.1 µM, first compound 0.3 µM",91.3%
same,"viability, T/C","second compound 0.1 µM, first compound 0.949 µM",92.7%
same,"viability, T/C","second compound 0.1 µM, first compound 3 µM",94.4%
same,"viability, T/C","second compound 0.316 µM, first compound 0.00949 µM",94.8%
same,"viability, T/C","second compound 0.316 µM, first compound 0.03 µM",104%
same,"viability, T/C","second compound 0.316 µM, first compound 0.0949 µM",93.1%
same,"viability, T/C","second compound 0.316 µM, first compound 0.3 µM",88.1%
same,"viability, T/C","second compound 0.316 µM, first compound 0.949 µM",85.9%
same,"viability, T/C","second compound 0.316 µM, first compound 3 µM",94%
same,"viability, T/C","second compound 1 µM, first compound 0.00949 µM",99.8%
same,"viability, T/C","second compound 1 µM, first compound 0.03 µM",97.6%
same,"viability, T/C","second compound 1 µM, first compound 0.0949 µM",95.3%
same,"viability, T/C","second compound 1 µM, first compound 0.3 µM",93%
same,"viability, T/C","second compound 1 µM, first compound 0.949 µM",104%
same,"viability, T/C","second compound 1 µM, first compound 3 µM",101%
same,"viability, T/C","second compound 3.16 µM, first compound 0.00949 µM",105%
same,"viability, T/C","second compound 3.16 µM, first compound 0.03 µM",114%
same,"viability, T/C","second compound 3.16 µM, first compound 0.0949 µM",102%
same,"viability, T/C","second compound 3.16 µM, first compound 0.3 µM",104%
same,"viability, T/C","second compound 3.16 µM, first compound 0.949 µM",102%
same,"viability, T/C","second compound 3.16 µM, first compound 3 µM",103%
same,"viability, T/C","second compound 10 µM, first compound 0.00949 µM",122%
same,"viability, T/C","second compound 10 µM, first compound 0.03 µM",119%
same,"viability, T/C","second compound 10 µM, first compound 0.0949 µM",122%
same,"viability, T/C","second compound 10 µM, first compound 0.3 µM",128%
same,"viability, T/C","second compound 10 µM, first compound 0.949 µM",127%
same,"viability, T/C","second compound 10 µM, first compound 3 µM",122%
CC1COCCN1c1cc(-c2ccnn2C)c2ccnc(-c3ccn[nH]3)c2n1 (stereo not given) + CC(CO)NC(=O)c1cc(-c2ccc(Cl)cc2)nn(-c2cnn(C)c2)c1=O,IC50,second compound 0.1 µM,> 1 µM
same,IC50,second compound 0.316 µM,> 1 µM
same,IC50,second compound 1 µM,> 1 µM
same,IC50,second compound 3.16 µM,> 1 µM
same,IC50,second compound 10 µM,> 1 µM
same,"viability, T/C","second compound 0.1 µM, first compound 0.00316 µM",105%
same,"viability, T/C","second compound 0.1 µM, first compound 0.01 µM",97.6%
same,"viability, T/C",[1],99.9%
same,"viability, T/C",[2],91.4%
same,"viability, T/C",[3],99.2%
same,"viability, T/C",[4],88.8%
same,"viability, T/C","second compound 0.316 µM, first compound 0.00316 µM",92%
same,"viability, T/C","second compound 0.316 µM, first compound 0.01 µM",97.7%
same,"viability, T/C",[5],93.9%
same,"viability, T/C",[6],97.2%
same,"viability, T/C",[7],93.4%
same,"viability, T/C",[8],71.5%
same,"viability, T/C","second compound 1 µM, first compound 0.00316 µM",87.6%
same,"viability, T/C","second compound 1 µM, first compound 0.01 µM",90%
same,"viability, T/C",[9],93.4%
same,"viability, T/C",[10],96.2%
same,"viability, T/C",[11],88.9%
same,"viability, T/C",[12],81.8%
same,"viability, T/C","second compound 3.16 µM, first compound 0.00316 µM",112%
same,"viability, T/C","second compound 3.16 µM, first compound 0.01 µM",91.7%
same,"viability, T/C",[13],105%
same,"viability, T/C",[14],92.2%
same,"viability, T/C",[15],88.5%
same,"viability, T/C",[16],65.6%
same,"viability, T/C","second compound 10 µM, first compound 0.00316 µM",112%
same,"viability, T/C","second compound 10 µM, first compound 0.01 µM",91.8%
same,"viability, T/C",[17],92.1%
same,"viability, T/C",[18],93.2%
same,"viability, T/C",[19],95.9%
same,"viability, T/C",[20],76.8%
Nc1ccn(C2OC(CO)C(O)C2(F)F)c(=O)n1 (stereo not given) + Cc1ccccc1N=Nc1ccc(NC(=O)c2ccnn2C)c(C)c1,IC50,second compound 0.1 µM,> 10 µM
same,IC50,second compound 0.316 µM,> 10 µM
same,IC50,second compound 1 µM,9.15 µM
same,IC50,second compound 3.16 µM,1.48 µM
same,IC50,second compound 10 µM,> 10 µM
same,"viability, T/C",[1],65%
same,"viability, T/C",[2],62.7%
same,"viability, T/C",[3],54.7%
same,"viability, T/C",[4],63.4%
same,"viability, T/C","second compound 0.1 µM, first compound 3.16 µM",57.1%
same,"viability, T/C","second compound 0.1 µM, first compound 10 µM",59.1%
same,"viability, T/C",[5],66.4%
same,"viability, T/C",[6],62%
same,"viability, T/C",[7],56.5%
same,"viability, T/C",[8],59.4%
same,"viability, T/C","second compound 0.316 µM, first compound 3.16 µM",54.8%
same,"viability, T/C","second compound 0.316 µM, first compound 10 µM",53.1%
same,"viability, T/C",[9],61%
same,"viability, T/C",[10],57.4%
same,"viability, T/C",[11],65.6%
same,"viability, T/C",[12],56.7%
same,"viability, T/C","second compound 1 µM, first compound 3.16 µM",51.2%
same,"viability, T/C","second compound 1 µM, first compound 10 µM",50.8%
same,"viability, T/C",[13],68.1%
same,"viability, T/C",[14],55.8%
same,"viability, T/C",[15],51.9%
same,"viability, T/C",[16],45.5%
same,"viability, T/C","second compound 3.16 µM, first compound 3.16 µM",50.8%
same,"viability, T/C","second compound 3.16 µM, first compound 10 µM",52.3%
same,"viability, T/C",[17],69.9%
same,"viability, T/C",[18],56.9%
same,"viability, T/C",[19],51.4%
same,"viability, T/C",[20],60.6%
same,"viability, T/C","second compound 10 µM, first compound 3.16 µM",47.8%
same,"viability, T/C","second compound 10 µM, first compound 10 µM",55.4%
